Experimental data from patent publication US6677431B2, “Design, preparation, and properties of antibacterial β-peptides” (The Trustees of the University of Pennsylvania, priority 1999, dated 2004).
pIC50: −log10 of the molar value. Read-outs that look alike come from different tables or passages of the source. No end group written: not given here.

What was measured:
K91 E. coli = assay type: cell-based; conditions: K91, 9 h, pH 7.4
Procedure: (§1) The biological activities of these peptides were measured using human erythrocytes and E. coli as models for mammalian and bacterial cells, respectively. Hemolysis was monitored in 10 mM Tris, 150 mM NaCl, pH 7.0, while the bacterial assay was conducted in minimal media M9 (Table 1); both of these solutions are sufficiently transparent to allow CD and ultracentrifugation measurements (supplementary material). Under the assay conditions, the peptides gave CD spectra similar to those in Tris buffer, with the exception of H-(β^3-HLeu-β^3-HLys-β^3-HLeu)n-OH, n=5 and 6.
Antibacterial assay was performed by incubation of K 91 E. coli and peptide of different concentrations in minimal media, at pH 7.4. The peptide solution (50 μL) and K 91 E. coli culture (20 μL, grown in minimal media for 24 hr-36 hr) were mixed with 1 mL minimal media. […] The peptide dose required for 50% suppress of bacterial growth was obtained from the smooth fitted OD600 vs. log[peptide] curve.
(§2) The activity and selectivity of peptide 1 and peptide 2 were examined by antibacterial assay and hemolysis experiments. E. Coli and human erythrotytes (RBC) were used as models for bacterial cell and mammalian cell, respectively. The peptide concentration required for 50% bacterial growth suppression (IC50), and peptide concentration required for 50% RBC lysis (HD50) are listed in Table 3. […] The antibacterial activities of peptide 1 and peptide 2 are about the same except peptide 2 has slightly lower IC50. Similar trend has been observed in the previous study, that longer peptide tends to have higher activity. However, the difference in IC50 is much smaller for this series of peptide than the previously studied ones. Antibacterial peptide with good selectivity is usually represented by its low hemolysis ability. […] The HD50 is 670 μM for peptide 1 and 240 μM for peptide 2, which gives a selectivity of 111 for peptide 1 and 60 for peptide 2.

[1] = Hemolysis assay, 50% lysis of RBC's; assay type: cell-based, human; conditions: 0.25% suspension of human erythrocytes (RBCs)
Procedure: as §1
(§3) ∇in M9 medium (data from Hamuro et al., ref. 5) # In M9 medium.+Hemolysis experiments were performed by incubating a 0.25% suspension of human RBc's in 10 mM Tris buffer containing […] at pH 7.0 with varying amounts of peptide. The hemolytic dose required to lyse 50% of the RBC's is reported as the HD50.
(§4) Hemolysis experiments were carried out by incubating 0.25% suspension of human erythrocytes (RBC's) with peptides of different concentrations in 150 mM sodium choloride, 10 mM Tris buffer, pH 7.0. The sample was prepared by combining 400 μL of the RBC suspension and […] of the peptide solution. After incubated the sample at 37— C. for 1 hour, the sample was centrifuged at 14,000 rpm for 5 min, and the OD414 of the supernatant was measured. Mellitin (50 μM) was used to get 100% hemolysis. The hemolytic IC50 was obtained by plotting hemolysis percentage vis. peptide concentration, and the concentration required for 50% hemolysis was determined from the smooth curve-fitted graph.
as §2

[2] = test system: human erythrocytes (RBC's); assay: Hemolysis assay, 50% lysis of RBC's; assay type: cell-based; conditions: pH 7
Procedure: as §1, §3, §4, §2

[3] = In LB medium (data from Oh et al.); cited from earlier work
osmY-lux fusion = assay: Stress-induced response assay, induction of osmY-lux fusion; assay type: cell-based; conditions: Table 4; stress sensed osmotic shock
Procedure: (§5) Stress-induced response and growth inhibition assays were carried out on samples of four of the β-peptide and compared to known polycationic peptides.
(§6) Polymyxin B was tested both rich, LB, medium and defined, M9, medium. The other natural peptides were tested in LB medium.
(§7) The β-peptides were tested in M9 medium. * In LB medium (data from Oh et al. Biochem. Biophys. Acta. 2000,1463: 43-54)
(§8) However, similar to the magainins, no induction of the micF-lux fusion was observed. Also, the minimum inhibitory concentrations (MIC's) were determined to be higher than those reported in the published manuscript.
(§9) Samples of these β-peptides 1 and 2 were evaluated in the stress-induced response assays.
(§10) The biolumenescence data result from test carried out according to U.S. Pat. No. 5,683,868, Highly Sensitive Method For Detecting Environmental Insults, issued Nov. 4, 1997 to LaRossa et al., the entire contents of the disclosure of are hereby incorporated by reference, The tests described in this patent permit antibacterial properties of peptides or any other materials to be assessed. […] Along these lines, FIG. 5 illustrates a relationship between relative light units and minutes of exposure of bacteria to the various materials in the legend. P×B represents polymyxin, a known antibacterial material. In the graph, a decrease in RULs corresponds to a decrease in bacteria. […]

micF-lux fusion = assay: Stress-induced response assay, induction of micF-lux fusion; assay type: cell-based; conditions: Table 4; regulatory gene Rob
Procedure: as §5, §6, §7, §8, §9, §10

Row | Molecule | pIC50 (K91 E. coli) | HC50 at 1 h ([1]; human, pH 7) | MIC* [3] | also measured
1 | CC(C)C[C@@H](CC(=O)O)NC(=O)C[C@H](CCCCN)NC(=O)C[C@@H](NC(=O)C[C@H](CC(C)C)NC(=O)C[C@H](CCCCN)NC(=O)C[C@@H](NC(=O)OCC1c2ccccc2-c2ccccc21)C(C)C)C(C)C [Fmoc-(β^3-HVal-β^3-HLys-β^3-HLeu)2-OH, Fmoc-(b^3-HVal-b^3-HLys-b^3-HLeu)2-OH] | < 4.00 | > 100 µM | – | –
2 | CC(C)C[C@@H](CC(=O)O)NC(=O)C[C@H](CCCCN)NC(=O)C[C@@H](NC(=O)C[C@H](CC(C)C)NC(=O)C[C@H](CCCCN)NC(=O)C[C@@H](NC(=O)C[C@H](CC(C)C)NC(=O)C[C@H](CCCCN)NC(=O)C[C@@H](NC(=O)OCC1c2ccccc2-c2ccccc21)C(C)C)C(C)C)C(C)C [Fmoc-(β^3-HVal-β^3-HLys-β^3-HLeu)3-OH, Fmoc-(b^3-HVal-b^3-HLys-b^3-HLeu)3-OH] | 4.82 | 6.3 µM | – | HD50+ [2]: 6.3 µM
3 | CC(C)C[C@@H](CC(=O)O)NC(=O)C[C@H](CCCCN)NC(=O)C[C@@H](NC(=O)C[C@H](CC(C)C)NC(=O)C[C@H](CCCCN)NC(=O)C[C@@H](NC(=O)C[C@H](CC(C)C)NC(=O)C[C@H](CCCCN)NC(=O)C[C@@H](NC(=O)C[C@H](CC(C)C)NC(=O)C[C@H](CCCCN)NC(=O)C[C@@H](NC(=O)OCC1c2ccccc2-c2ccccc21)C(C)C)C(C)C)C(C)C)C(C)C [Fmoc-(β^3-HVal-β^3-HLys-β^3-HLeu)4-OH, Fmoc-(b^3-HVal-b^3-HLys-b^3-HLeu)4-OH] | 5.82 | 0.31 µM | – | –
4 | CC(C)C[C@H](N)CC(=O)N[C@@H](CCCCN)CC(=O)N[C@H](CC(=O)N[C@H](CC(=O)N[C@@H](CCCCN)CC(=O)N[C@H](CC(=O)O)CC(C)C)CC(C)C)CC(C)C [H-(β^3-HLeu-β^3-HLys-β^3-HLeu)2-OH, H-(b^3-HLeu-b^3-HLys-b^3-HLeu)2-OH] | < 4.00 | > 100 µM | – | –
5 | CC(C)C[C@H](N)CC(=O)N[C@@H](CCCCN)CC(=O)N[C@H](CC(=O)N[C@H](CC(=O)N[C@@H](CCCCN)CC(=O)N[C@H](CC(=O)N[C@H](CC(=O)N[C@@H](CCCCN)CC(=O)N[C@H](CC(=O)O)CC(C)C)CC(C)C)CC(C)C)CC(C)C)CC(C)C [H-(β^3-HLeu-β^3-HLys-β^3-HLeu)3-OH, H-(b^3-HLeu-b^3-HLys-b^3-HLeu)3-OH] | 4.46 | > 100 µM | – | –
6 | CC(C)C[C@H](N)CC(=O)N[C@@H](CCCCN)CC(=O)N[C@H](CC(=O)N[C@H](CC(=O)N[C@@H](CCCCN)CC(=O)N[C@H](CC(=O)N[C@H](CC(=O)N[C@@H](CCCCN)CC(=O)N[C@H](CC(=O)N[C@H](CC(=O)N[C@@H](CCCCN)CC(=O)N[C@H](CC(=O)O)CC(C)C)CC(C)C)CC(C)C)CC(C)C)CC(C)C)CC(C)C)CC(C)C [H-(β^3-HLeu-β^3-HLys-β^3-HLeu)4-OH, H-(b^3-HLeu-b^3-HLys-b^3-HLeu)4-OH] | 5.77 | 2.6 µM | – | HD50+ [2]: 2.6 µM
7 | CC(C)C[C@H](N)CC(=O)N[C@@H](CCCCN)CC(=O)N[C@H](CC(=O)N[C@H](CC(=O)N[C@@H](CCCCN)CC(=O)N[C@H](CC(=O)N[C@H](CC(=O)N[C@@H](CCCCN)CC(=O)N[C@H](CC(=O)N[C@H](CC(=O)N[C@@H](CCCCN)CC(=O)N[C@H](CC(=O)N[C@H](CC(=O)N[C@@H](CCCCN)CC(=O)N[C@H](CC(=O)O)CC(C)C)CC(C)C)CC(C)C)CC(C)C)CC(C)C)CC(C)C)CC(C)C)CC(C)C)CC(C)C [H-(β^3-HLeu-β^3-HLys-β^3-HLeu)5-OH, H-(b^3-HLeu-b^3-HLys-b^3-HLeu)5-OH] | – | 0.23 µM | – | HD50+ [2]: 0.23 µM
8 | CC(C)C[C@H](N)CC(=O)N[C@@H](CCCCN)CC(=O)N[C@H](CC(=O)N[C@H](CC(=O)N[C@@H](CCCCN)CC(=O)N[C@H](CC(=O)N[C@H](CC(=O)N[C@@H](CCCCN)CC(=O)N[C@H](CC(=O)N[C@H](CC(=O)N[C@@H](CCCCN)CC(=O)N[C@H](CC(=O)N[C@H](CC(=O)N[C@@H](CCCCN)CC(=O)N[C@H](CC(=O)N[C@H](CC(=O)N[C@@H](CCCCN)CC(=O)N[C@H](CC(=O)O)CC(C)C)CC(C)C)CC(C)C)CC(C)C)CC(C)C)CC(C)C)CC(C)C)CC(C)C)CC(C)C)CC(C)C)CC(C)C [H-(β^3-HLeu-β^3-HLys-β^3-HLeu)6-OH, H-(b^3-HLeu-b^3-HLys-b^3-HLeu)6-OH] | – | 0.081 µM | – | HD50+ [2]: 0.081
9 | CC(C)C[C@@H](CC(=O)O)NC(=O)C[C@H](CCCCN)NC(=O)C[C@@H](NC(=O)C[C@H](CC(C)C)NC(=O)C[C@H](CCCCN)NC(=O)C[C@@H](N)C(C)C)C(C)C [H-(β^3-HVal-β^3-HLys-β^3-HLeu)2-OH, H-(b^3-HVal-b^3-HLys-b^3-HLeu)2-OH] | < 4.00 | > 100 µM | – | –
10 | CC(C)C[C@@H](CC(=O)O)NC(=O)C[C@H](CCCCN)NC(=O)C[C@@H](NC(=O)C[C@H](CC(C)C)NC(=O)C[C@H](CCCCN)NC(=O)C[C@@H](NC(=O)C[C@H](CC(C)C)NC(=O)C[C@H](CCCCN)NC(=O)C[C@@H](N)C(C)C)C(C)C)C(C)C [H-(β^3-HVal-β^3-HLys-β^3-HLeu)3-OH, H-(b^3-HVal-b^3-HLys-b^3-HLeu)3-OH] | 4.39 | – | – | HC50 at 1 h ([1]; 0.25% human erythrocytes, 10 mM Tris, 150 mM NaCl, pH 7.0, 1 h at 37° C., read-out: Hemolysis HD50): 86 µM
11 | CC(C)C[C@@H](CC(=O)O)NC(=O)C[C@H](CCCCN)NC(=O)C[C@@H](NC(=O)C[C@H](CC(C)C)NC(=O)C[C@H](CCCCN)NC(=O)C[C@@H](NC(=O)C[C@H](CC(C)C)NC(=O)C[C@H](CCCCN)NC(=O)C[C@@H](NC(=O)C[C@H](CC(C)C)NC(=O)C[C@H](CCCCN)NC(=O)C[C@@H](N)C(C)C)C(C)C)C(C)C)C(C)C [H-(β^3-HVal-β^3-HLys-β^3-HLeu)4-OH, H-(b^3-HVal-b^3-HLys-b^3-HLeu)4-OH] | 5.68 | 4.2 µM | – | –
12 | Cecropin A (KWKLFKKIEKVGQNIRDGIIKAGPAVAVVGQATQIAK; ends and bridges not checked; UniProt P01507 27-63, looked up) [known polycationic natural peptide] | – | – | 0.1 µM | –
13 | Cecropin B (KWKVFKKIEKMGRNIRNGIVKAGPAIAVLGEAKAL; ends and bridges not checked; UniProt P01508 27-61, looked up) [known polycationic natural peptide] | – | – | 0.1 µM | –
14 | Magainin 1 (GIGKFLHSAGKFGKAFVGEIMKS; Magainin-1; UniProt P11006 37-59, looked up) [known polycationic natural peptide (frog skin)] | – | – | 12 µM | –
15 | Magainin 2 | – | – | 5 µM | –
16 | Polymyxin B | – | – | 0.2 µM | –
17 | Polymyxin E | – | – | 0.15 µM | –
18 | Polymyxin [reference compound] | – | – | – | osmY gene fusion response (osmY-lux fusion): yes; micF gene fusion response (micF-lux fusion): yes
